Data taken from PMC6236315 (Molecular Medicine Reports, 2018).
Counter-ions that a name gives are not always drawn.

Columns and labels:
LAD2 mast cells [1] = experiment: β-Hexosaminidase release; assay type: cell-based, human; conditions: 37°C
LAD2 mast cells [2] = experiment: LL-37 internalization into LAD2 cells; assay type: cell-based, human; conditions: 37°C
[3] = genistein 10 µM, 30 min pre-treatment, then LL-37 5 µM, 40 min
[4] = chlorpromazine 2.5 µM, 30 min pre-treatment, then LL-37 5 µM, 40 min
[5] = pertussis toxin 250 ng/ml, 1 h pre-treatment, then LL-37 5 µM for 40 min

Molecule: O=c1c(-c2ccc(O)cc2)coc2cc(O)cc(O)c12 [genistein]
- effect on LL-37-induced degranulation (β-hexosaminidase release) (LAD2 mast cells [1]; [3]): did not affect
- effect on LL-37 internalization (fluorescence intensity) (LAD2 mast cells [2]; [3]): did not affect

Molecule: CN(C)CCCN1c2ccccc2Sc2ccc(Cl)cc21 [chlorpromazine, Chlorpromazine hydrochloride]
- effect on LL-37-induced degranulation (β-hexosaminidase release) (LAD2 mast cells [1]; [4]): inhibited degranulation
- effect on LL-37 internalization (fluorescence intensity) (LAD2 mast cells [2]; [4]): suppressed LL-37 internalization

Molecule: pertussis toxin
- effect on LL-37-induced degranulation (β-hexosaminidase release) (LAD2 mast cells [1]; [5]): significantly suppressed
- effect on LL-37 internalization (fluorescence intensity) (LAD2 mast cells [2]; [5]): significantly suppressed

Molecule: O=C(N/N=C/c1ccc(O)c(O)c1)c1cc2ccccc2cc1O [dynasore, Dynasore]
- effect on LL-37-induced degranulation (β-hexosaminidase release) (LAD2 mast cells [1]; dynasore 10 µM, 30 min pre-treatment, then LL-37 5 µM, 40 min): inhibited degranulation
